Test results published in the NIST ThermoML archive (doi:10.1016/j.jct.2012.09.026).

Experiment: xn = mol fraction of the nth substance listed
Details: Liquid

CC(C)(C)O [2-methylpropan-2-ol] + O
mass density [kg/m3]
Details	278.15 K	288.15 K	298.15 K	308.15 K	323.15 K
101.3 kPa, Vibrating tube method, x1 = 0.0248	986.88	985.26	982.45	978.65	971.52
101.3 kPa, Vibrating tube method, x1 = 0.04241	981.87	978.77	974.54	969.43	960.77
101.3 kPa, Vibrating tube method, x1 = 0.05887	977	971.81	965.94	959.67	949.57
101.3 kPa, Vibrating tube method, x1 = 0.08929	963.35	956.03	949.01	941.57	930.6
101.3 kPa, Vibrating tube method, x1 = 0.1125	951.21	943.7	936.18	928.56	916.92
101.3 kPa, Vibrating tube method, x1 = 0.1566	929.91	922.09	914.18	906.33	893.97
101.3 kPa, Vibrating tube method, x1 = 0.208	910.57	902.66	894.55	886.22	873.34
101.3 kPa, Vibrating tube method, x1 = 0.3023	882.17	874	865.6	856.97	843.45
101.3 kPa, Vibrating tube method, x1 = 0.4045	860.22	851.78	843.11	834.17	820.18
101.3 kPa, Vibrating tube method, x1 = 0.4827	847.15	838.7	830.01	820.93	806.67
101.3 kPa, Vibrating tube method, x1 = 0.5344	839.61	830.98	822.05	812.83	798.37
101.3 kPa, Vibrating tube method, x1 = 0.6029	831.08	822.27	813.22	803.86	789.18
101.3 kPa, Vibrating tube method, x1 = 0.726	818.36	809.38	800.1	790.54	775.51
101.3 kPa, Vibrating tube method, x1 = 0.7999	812.56	803.46	794.07	784.37	768.91
101.3 kPa, Vibrating tube method, x1 = 0.8711	–	797.8	788.3	778.45	763
101.3 kPa, Vibrating tube method, x1 = 0.9183	–	794.66	785.07	775.09	759.52
101.3 kPa, Vibrating tube method, x1 = 0.9574	–	–	782.74	772.63	756.76
101.3 kPa, Vibrating tube method, x1 = 1	–	–	–	770.14	753.94
10000 kPa, Constant-volume piezometry, x1 = 0.0248	990.83	989.1	986.4	982.6	975.58
10000 kPa, Constant-volume piezometry, x1 = 0.04241	985.44	982.35	978.4	973.49	965.03
10000 kPa, Constant-volume piezometry, x1 = 0.05887	980.38	975.51	969.98	963.89	954.03
10000 kPa, Constant-volume piezometry, x1 = 0.08929	967.1	960.11	953.39	946.1	935.46
10000 kPa, Constant-volume piezometry, x1 = 0.1125	955.35	948.15	940.81	933.31	922.12
10000 kPa, Constant-volume piezometry, x1 = 0.1566	934.55	927.05	919.21	911.53	899.59
10000 kPa, Constant-volume piezometry, x1 = 0.208	915.88	908.09	899.99	891.88	879.35
10000 kPa, Constant-volume piezometry, x1 = 0.3023	888.19	880.07	871.71	863.34	850.13
10000 kPa, Constant-volume piezometry, x1 = 0.4045	866.8	858.48	849.93	841.23	827.69
10000 kPa, Constant-volume piezometry, x1 = 0.4827	854.18	845.78	837.26	828.5	814.74
10000 kPa, Constant-volume piezometry, x1 = 0.5344	–	838.32	829.58	820.71	806.74
10000 kPa, Constant-volume piezometry, x1 = 0.6029	–	–	821.11	812.19	797.93
10000 kPa, Constant-volume piezometry, x1 = 0.726	–	–	–	799.44	784.92
10000 kPa, Constant-volume piezometry, x1 = 0.7999	–	–	–	–	778.73
10000 kPa, Constant-volume piezometry, x1 = 0.8711	–	–	–	–	773.1
10000 kPa, Constant-volume piezometry, x1 = 0.9183	–	–	–	–	769.84
10000 kPa, Constant-volume piezometry, x1 = 0.9574	–	–	–	–	767.23
10000 kPa, Constant-volume piezometry, x1 = 1	–	–	–	–	764.58
25000 kPa, Constant-volume piezometry, x1 = 0.0248	996.63	994.94	992.33	988.54	981.52
25000 kPa, Constant-volume piezometry, x1 = 0.04241	990.81	987.9	984.21	979.65	971.36
25000 kPa, Constant-volume piezometry, x1 = 0.05887	985.66	981.16	975.95	970.24	960.64
25000 kPa, Constant-volume piezometry, x1 = 0.08929	972.88	966.27	959.85	952.8	942.55
25000 kPa, Constant-volume piezometry, x1 = 0.1125	961.59	954.74	947.61	940.3	929.62
25000 kPa, Constant-volume piezometry, x1 = 0.1566	941.34	934.17	926.51	919.1	907.6
25000 kPa, Constant-volume piezometry, x1 = 0.208	923.3	915.74	907.83	900.03	887.94
25000 kPa, Constant-volume piezometry, x1 = 0.3023	896.35	888.45	880.25	872.28	859.69
25000 kPa, Constant-volume piezometry, x1 = 0.4045	875.55	867.58	859.23	850.99	838.16
25000 kPa, Constant-volume piezometry, x1 = 0.4827	863.45	855.38	847.01	838.84	825.82
25000 kPa, Constant-volume piezometry, x1 = 0.5344	–	848.18	839.65	831.4	818.13
25000 kPa, Constant-volume piezometry, x1 = 0.6029	–	–	831.63	823.36	809.81
25000 kPa, Constant-volume piezometry, x1 = 0.726	–	–	–	811.34	797.59
25000 kPa, Constant-volume piezometry, x1 = 0.7999	–	–	–	–	791.84
25000 kPa, Constant-volume piezometry, x1 = 0.8711	–	–	–	–	786.62
25000 kPa, Constant-volume piezometry, x1 = 0.9183	–	–	–	–	783.6
25000 kPa, Constant-volume piezometry, x1 = 0.9574	–	–	–	–	781.19
25000 kPa, Constant-volume piezometry, x1 = 1	–	–	–	–	778.73
50000 kPa, Constant-volume piezometry, x1 = 0.0248	1005.84	1004.75	1002.03	998.04	991.13
50000 kPa, Constant-volume piezometry, x1 = 0.04241	999.56	997.38	993.67	989.37	981.39
50000 kPa, Constant-volume piezometry, x1 = 0.05887	994.6	990.56	985.61	980.26	971.01
50000 kPa, Constant-volume piezometry, x1 = 0.08929	982.34	976.26	970.06	963.39	953.61
50000 kPa, Constant-volume piezometry, x1 = 0.1125	971.7	965.1	958.37	951.52	941.17
50000 kPa, Constant-volume piezometry, x1 = 0.1566	952.1	945.1	937.98	931.05	920.03
50000 kPa, Constant-volume piezometry, x1 = 0.208	934.42	927.25	920	912.67	901.32
50000 kPa, Constant-volume piezometry, x1 = 0.3023	908.07	900.8	893.22	885.81	874.39
50000 kPa, Constant-volume piezometry, x1 = 0.4045	887.79	880.62	872.83	865.39	853.64
50000 kPa, Constant-volume piezometry, x1 = 0.4827	876.1	869.2	861.18	853.93	841.81
50000 kPa, Constant-volume piezometry, x1 = 0.5344	–	862.25	854.14	846.76	834.43
50000 kPa, Constant-volume piezometry, x1 = 0.6029	–	–	846.6	839.04	826.63
50000 kPa, Constant-volume piezometry, x1 = 0.726	–	–	–	827.94	815.19
50000 kPa, Constant-volume piezometry, x1 = 0.7999	–	–	–	–	809.91
50000 kPa, Constant-volume piezometry, x1 = 0.8711	–	–	–	–	805.23
50000 kPa, Constant-volume piezometry, x1 = 0.9183	–	–	–	–	802.47
50000 kPa, Constant-volume piezometry, x1 = 0.9574	–	–	–	–	800.32
50000 kPa, Constant-volume piezometry, x1 = 1	–	–	–	–	798.2
75000 kPa, Constant-volume piezometry, x1 = 0.0248	1014.43	1014.19	1011.23	1006.97	1000.34
75000 kPa, Constant-volume piezometry, x1 = 0.04241	1007.73	1006.42	1002.58	998.3	990.63
75000 kPa, Constant-volume piezometry, x1 = 0.05887	1002.96	999.48	994.71	989.51	980.49
75000 kPa, Constant-volume piezometry, x1 = 0.08929	991.23	985.6	979.52	973.24	963.7
75000 kPa, Constant-volume piezometry, x1 = 0.1125	981	974.66	968.17	961.84	951.62
75000 kPa, Constant-volume piezometry, x1 = 0.1566	961.89	955.07	948.39	941.93	931.22
75000 kPa, Constant-volume piezometry, x1 = 0.208	944.32	937.59	930.82	924	913.19
75000 kPa, Constant-volume piezometry, x1 = 0.3023	918.19	911.52	904.74	897.73	887.1
75000 kPa, Constant-volume piezometry, x1 = 0.4045	898.01	891.74	884.67	877.69	866.87
75000 kPa, Constant-volume piezometry, x1 = 0.4827	886.19	880.7	873.35	866.59	855.33
75000 kPa, Constant-volume piezometry, x1 = 0.5344	–	873.92	866.45	859.52	848.15
75000 kPa, Constant-volume piezometry, x1 = 0.6029	–	–	859.03	851.9	840.58
75000 kPa, Constant-volume piezometry, x1 = 0.726	–	–	–	841.27	829.57
75000 kPa, Constant-volume piezometry, x1 = 0.7999	–	–	–	–	824.52
75000 kPa, Constant-volume piezometry, x1 = 0.8711	–	–	–	–	820.17
75000 kPa, Constant-volume piezometry, x1 = 0.9183	–	–	–	–	817.6
75000 kPa, Constant-volume piezometry, x1 = 0.9574	–	–	–	–	815.64
75000 kPa, Constant-volume piezometry, x1 = 1	–	–	–	–	813.79
100000 kPa, Constant-volume piezometry, x1 = 0.0248	1022.28	1022.71	1019.69	1015.14	1009.12
100000 kPa, Constant-volume piezometry, x1 = 0.04241	1014.85	1014.15	1010.64	1006.32	998.9
100000 kPa, Constant-volume piezometry, x1 = 0.05887	1009.82	1007.36	1003.04	997.93	989.01
100000 kPa, Constant-volume piezometry, x1 = 0.08929	999.16	993.91	988.13	982.34	972.81
100000 kPa, Constant-volume piezometry, x1 = 0.1125	988.91	983.36	976.75	970.82	961.04
100000 kPa, Constant-volume piezometry, x1 = 0.1566	970.36	964.36	957.51	951.42	941.06
100000 kPa, Constant-volume piezometry, x1 = 0.208	953.46	947.22	940.04	933.91	923.15
100000 kPa, Constant-volume piezometry, x1 = 0.3023	927.69	921.12	915	908.14	897.26
100000 kPa, Constant-volume piezometry, x1 = 0.4045	907.4	901.88	895.56	888.2	878.13
100000 kPa, Constant-volume piezometry, x1 = 0.4827	895.03	890.44	884.31	877.25	867.33
100000 kPa, Constant-volume piezometry, x1 = 0.5344	–	883.95	877.51	870.36	860.41
100000 kPa, Constant-volume piezometry, x1 = 0.6029	–	–	869.84	863.06	852.9
100000 kPa, Constant-volume piezometry, x1 = 0.726	–	–	–	852.47	842.31
100000 kPa, Constant-volume piezometry, x1 = 0.7999	–	–	–	–	837.55
100000 kPa, Constant-volume piezometry, x1 = 0.8711	–	–	–	–	833.28
100000 kPa, Constant-volume piezometry, x1 = 0.9183	–	–	–	–	830.96
100000 kPa, Constant-volume piezometry, x1 = 0.9574	–	–	–	–	829.12
100000 kPa, Constant-volume piezometry, x1 = 1	–	–	–	–	827.34
